Measured values published in ChEMBL document CHEMBL5257043, “Bulbiferamide, an Antitrypanosomal Hexapeptide Cyclized via an N-Acylindole Linkage from a Marine Obligate Microbulbifer” (J Nat Prod, 2023).
Active and inactive are the calls of the source. No cut-off for these calls is given here. *1 amine or outer side, *2 acyl side, *3 side chain or, on linkers, in order; H or OH if unused. Where a SMILES comes first, the peptide text is derived from it. Bridges are numbered along the chain shown (N, C = ends). CO = O=C([*:1])[*:2]

Assays:
Staphylococcus aureus = assay: Antimicrobial activity against Staphylococcus aureus FDA209 JC-1 at 100 ug/ml incubated for 24 hrs by microplate reader assay; assay type: functional, organism-based; settings: dose 100.0 µg/ml
Kocuria rhizophila = assay: Antimicrobial activity against Kocuria rhizophila ATCC9341 at 100 ug/ml incubated for 24 hrs by microplate reader assay; assay type: functional, organism-based; settings: dose 100.0 µg/ml
Candida albicans = assay: Antimicrobial activity against Candida albicans NBRC0197 at 100 ug/ml by microplate reader assay; assay type: functional, organism-based; settings: dose 100.0 µg/ml
Ralstonia solanacearum = assay: Antimicrobial activity against Ralstonia solanacearum SUPP1541 at 100 ug/ml incubated for 24 hrs by microplate reader assay; assay type: functional, organism-based; settings: dose 100.0 µg/ml
Trypanosoma cruzi = assay: Antitrypanosomal activity against Trypanosoma cruzi Tulahuen epimastigotes incubated for 24 hrs by cell titer glo luminescent assay; assay type: functional, organism-based
Escherichia coli = assay: Antimicrobial activity against Escherichia coli NIHJ JC-2 at 100 ug/ml incubated for 24 hrs by microplate reader assay; assay type: functional, organism-based; settings: dose 100.0 µg/ml
P338 = assay: Cytotoxicity against mouse P388 cells at 100 uM incubated for 84 hrs by MTT assay; assay type: functional, cell-based
[1] = test system: Agrobacterium tumefaciens; assay: Antimicrobial activity against Rhizobium radiobacter NBRC14554 at 100 ug/ml incubated for 24 hrs by microplate reader assay; assay type: functional, organism-based; settings: dose 100.0 µg/ml

CC[C@H](C)[C@@H]1NC(=O)[C@@H](NC(=O)[C@H](CC(C)C)NC(=O)N[C@@H](Cc2ccccc2)C(=O)O)Cc2cn(c3ccccc23)C(=O)[C@H](CC(C)C)NC(=O)[C@H](CCCNC(=N)N)NC1=O ({Phe-CO}-LWIRL; lactam 2-C)
Activity (Staphylococcus aureus): inactive | Activity (Kocuria rhizophila): inactive | Activity (Candida albicans): inactive | Activity (Ralstonia solanacearum): inactive | IC50 (Trypanosoma cruzi): 4.1 µM | Activity (Escherichia coli): inactive | Activity (P338): inactive | Activity [1]: inactive

O=C(Cn1ccnc1[N+](=O)[O-])NCc1ccccc1 [BENZNIDAZOLE]
IC50 (Trypanosoma cruzi): 20 µM
